In the series the test system is Gastrin receptor-expressing rat pancreatic cells (NIH line AR42J). The series can be described thus: Viable cell count of AR42J cells after about five days of exposure. It counts as cell-based. To be noted: for % Viable Cells: rat. The method, then:
The number of viable cells left in the culture after the five day period was measured, and compared to a control culture that was not exposed either compound. The number of cells remaining in each of the experimental cultures, expressed as a percentage of viable cells in the control culture, is provided in Table 4, below.

Regarding `COc1ccc2c3c(c4ccccc4cc13)C(=O)N(CCN(C)CCN)C2=O` [MD117, 2-{2-[(2-aminoethyl)methylamino]ethyl}-6-methoxy-1,2-dihydro-3H-dibenzo[de,h]isoquinoline-1,3-dione], where the note is “AR42J, 10, 50, 100 and 1000 nM, result in words”, the “cell killing at the tested concentrations” value is listed as “killing all cells in the culture at each of the tested concentrations”. Further, the CC50 (Rattus norvegicus, AR-42J, 120 h, read-out: LC50 (median concentration required for death of 50% of the cell population), AR42J, about five days, calculated from the data) is 3 nM. For the same molecule, the “% Viable Cells” value reads like this: (0.01 µM) −100%; (0.05 µM) −100%; (0.1 µM) −100%; (1 µM) −100%.

The values above are taken from patent US8008316B2, “Azonafide derived tumor and cancer targeting compounds” (The United States of America as represented by the …, priority 2006, dated 2011).
